For series [1], the system named is Pseudomonas aeruginosa. In words: Broth dilution minimum inhibitory concentration, Pseudomonas aeruginosa. The series is classed as cell-based. As to conditions: for MIC: Pseudomonas aeruginosa, read-out: Minimum Inhibitory Concentration, Pseudomonas aeruginosa. How it is done:
(§1) In the primary biocidal testing of the quaternary higher dialkyl phosphonium salts, broth dilution was used as the primary method to determine the minimum salt concentrations necessary for a complete inhibition of bacterial, fungal and algal growth. Typically, 2 ml per tube of trypticase soy broth was used as nutrient medium. Usually 10 mg of the phosphonium chloride was dissolved in 5 ml ethanol and this was then diluted to 10 ml with water to give an aqueous ethanol stock solution of […] concentration. The inoculum of the microorganism was one drop of a thousandfold diluted 24 hour culture which usually contained 1000 bacteria or 10,000 fungal or algal cells. To the inoculated broth media, different amounts of the experimental chemicals were administered. The media were then observed for visible growth after a period dependent on the type of the microorganism used. Bacterial growth or inhibition was observed after one or two days. Growths of fungi and algae were checked after 7 or 14 days. Observing a series of dilutions of the experimental chemical, minimum growth inhibitory, i.e., microbiostatic, concentrations (MIC) were determined.
(§2) A number of quaternary phosphonium chlorides characterized in Table I were broth dilution tested against an important gram negative bacterial organism, Pseudomonas aeruginosa; a common gram positive bacterium, Staphylococcus aureus, and a widespread fungus, Aspergillus niger, and a common algal organism, Chlorella vulgaris.

For series [2], the system named is Staphylococcus aureus. In words: Broth dilution minimum inhibitory concentration, Staphylococcus aureus. The format is cell-based. As to conditions: read-out: Minimum Inhibitory Concentration, Staphylococcus aureus. How it is done: as §1, §2
Series [3] has as its system Aspergillus niger. In words: Broth dilution minimum inhibitory concentration, Aspergillus niger. The format is cell-based. As to conditions: for MIC: Aspergillus niger, read-out: Minimum Inhibitory Concentration, Aspergillus niger. The protocol: as §1, §2
In series [4] the test system is Chlorella vulgaris. In words: Broth dilution minimum inhibitory concentration, Chlorella vulgaris. The format is cell-based. As to conditions: read-out: Minimum Inhibitory Concentration, Chlorella vulgaris. The protocol:
as §1, §2

Series [5] is described as follows: Solubility in toluene.
Series [6] is described as follows: Acute oral toxicity in Swiss albino mice. The format is in vivo. As to conditions: mouse, in vivo, Swiss albino mice, read-out: median lethal toxicity, acute oral. The protocol: (§3) The acute oral toxicity of didecyl dimethyl phosphonium chloride and dioctadecyl diethyl phosphonium chloride was determined using Swiss albino mice. The median lethal toxicities found were 350 and 2840 mg salt per body kg mice, respectively.

The test system of series [7] is mice. In words: Acute oral toxicity in Swiss albino mice. The series is classed as in vivo. How it is done:
as §3

Series [8] concerns bacterial, fungal and algal growth. In words: Microbiocidal activity in general (broth dilution). The series is classed as cell-based. The protocol:
as §1

For series [9], the system named is Candida albicans. In words: Broth dilution minimum inhibitory concentration, Candida albicans. The format is cell-based. The protocol: as §1
(§4) To test the breadth of the microbiocidal spectrum of didecyl dimethyl phosphonium chloride, minimum inhibitory concentrations (MIC's) were determined against several additional organisms in broth dilution tests with the following results: […]

Series [10] deals with E. coli. In words: AOAC Germicidal and Sanitizer Test, E. coli. As to conditions: Escherichia coli. The series is classed as cell-based. An excerpt:
(§5) To determine the effectiveness of a quaternary higher dialkyl phosphonium salt, i.e. didecyl dimethyl phosphonium chloride as a bactericide, the AOAC Germicidal and Sanitizer Test was used.

The test system of series [11] is Escherichia coli. In words: Broth dilution minimum inhibitory concentration, Escherichia coli. The format is cell-based. How it is done:
as §1, §4

In series [12] the test system is Staph. aureus. In words: AOAC Germicidal and Sanitizer Test, Staph. aureus. The series is classed as cell-based. As to conditions: Staphylococcus aureus.
From the text: as §5

Series [13] concerns Salmonella typhosa. In words: Broth dilution minimum inhibitory concentration, Salmonella typhosa. The series is classed as cell-based. As to conditions: Salmonella enterica. How it is done: as §1, §4
The nature of series [14]: Interfacial tension in water-paraffin (Nujol) system, ASTM D-971. The series is classed as physicochemical. As to conditions: 25°. The protocol:
(§6) To obtain standard data for estimating the surface activity of quaternary higher dialkyl phosphonium salts, the surface tensions of their water solutions and the interfacial tensions of their equilibriated solutions in water and a paraffinic hydrocarbon were determined as described by ASTM D-971-50.
(§7) Didodecyl dimethyl phosphonium chloride and, for comparison, octadecyl trimethyl phosphonium chloride were tested as described above, according to ASTM D-971. The surface tension towards air measurement used distilled water at 25°, which gives a base value of 72 dynes per cm. For interfacial tension measurements a water-paraffin (Nujol) system was used. Without any added surfactant, this has an interfacial tension of 52 dynes per cm. The interfacial tension measurements of the phosphonium chloride solutions were made after equal volumes of the two immiscible solvent and the given amount of salt were slowly stirred for 30 minutes to arrive at equilibrium concentrations of the salt.

Series [15] in a line: Surface tension of water solutions towards air, ASTM D-971. As to conditions: 25°. The format is physicochemical. How it is done:
as §6, §7

Molecules are shown by their SMILES. Where two headings read alike, the source gives them in different places.

Take `CCCCCCCCCCCC[P+](CC)(CCCCCCCCCCCC)CC(C)C.[Cl-]` [Example 6, Didodecyl Isobutyl Ethyl Phosphonium Chloride]: the “activity against Pseudomonas aeruginosa” value in series [1] is “Particularly outstanding”. Further, the MIC in [1] (24 h, after 1 day) turned out to be 16 µg/mL; in [2] (24 h, after 1 day) it was 0.5 µg/mL; in [3] (336 h, after 14 days), 1 µg/mL; in [4] (336 h, after 14 days) it was 0.5 µg/mL. Further, the “solubility in toluene” value in series [5] is reported as “highly soluble in toluene”.

With `CCCCCCCCCCCCCCCCCC[P+](CC)(CC)CCCCCCCCCCCCCCCCCC.[Cl-]` [Example 8, Dioctadecyl Diethyl Phosphonium Chloride], the MIC in series [1] (48 h) amounted to 500 µg/mL; in [2] (48 h) it was 15 µg/mL; in [3] (336 h), 15 µg/mL; in series [4] (336 h) it was 7.5 µg/mL. Also, in series [6], the LD50 was found to be 2840 mg/kg. Also, in [7], the “level of oral toxicity” value was “essential lack of oral toxicity”. In series [8], the “microbiocidal activity” value was “not highly active microbiocidally”.

Regarding `CCCCCCCC[P+](C)(CC)CCCCCCCC.[Cl-]` [Example 5, Dioctyl Ethyl Methyl Phosphonium Chloride], in [1] (48 h, after 2 days), the MIC was found to be 250 µg/mL.

Regarding `CCCCCCCCCC[P+](C)(C)CCCCCCCCCC.[Cl-]` [Example 3, Didecyl Dimethyl Phosphonium Chloride], the “activity against Pseudomonas aeruginosa” value in series [1] is recorded as “Particularly outstanding”. The MIC was 16 µg/mL in series [1] (24 h); 0.5 µg/mL in series [2] (48 h); 0.25 µg/mL in series [9]; 0.25 µg/mL in series [3] (336 h); 0.125 µg/mL in series [4] (336 h); 0.5 µg/mL in series [11]. The MIC in series [13] was determined as 8 µg/mL. The LD50 in series [6] came out at 350 mg/kg. In series [7], the “level of oral toxicity” value was “medium level of oral toxicity”. Also, the killing at 25 ppm in [10] (200 ppm hardness, read-out: Reduction of live Bacterial Organisms in water of 200 ppm Hardness) amounted to 99.9%; in series [10] (distilled water, read-out: Reduction of live Bacterial Organisms in Distilled Water), 100%; in series [12] (read-out: Reduction of live Bacterial Organisms in Distilled Water) it was 100%; in series [12] (read-out: Reduction of live Bacterial Organisms in water of 200 ppm Hardness), 100%. The “minimum inhibitory concentration against Aspergillus niger relative to didodecyl dimethyl phosphonium chloride” value in series [3] (didecyl versus didodecyl compound (Seq. No. 4)) is on record as “three hundred times smaller”.

For `CCCCCCCC[P+](C)(C)CCCCCCCC.[Cl-]` [Example 4, Dioctyl Dimethyl Phosphonium Chloride], the MIC in series [1] (24 h, after 1 day) is 250 µg/mL; in series [2] (48 h, after 2 days) it was 0.5 µg/mL; in series [3] (336 h, after 14 days), 7.5 µg/mL; in series [4] (336 h, after 14 days) it was 4 µg/mL.

As for `CCCCCCCCCCCCCCCCCC[P+](C)(C)C.[Cl-]` [C18 H37 P^+ (CH3)3, octadecyl trimethyl phosphonium chloride, reference compound], the “Interfacial Tension of Water-Nujol” value in [14] (0.010% salt) was 12 Dynes/cm; in series [14] (0.100% salt), 10 Dynes/cm. The “Surface Tension of Water” value in [15] (0.010% salt) is 42 Dynes/cm; in [15] (0.100% salt), 41 Dynes/cm.

Take `CCCCCCCCCCCC[P+](C)(C)CCCCCCCCCCCC.[Cl-]` [Example 1, Didodecyl Dimethyl Phosphonium Chloride]: in series [1], the “activity against Pseudomonas aeruginosa” value is “no significant activity”. Besides, the MIC is 2500 µg/mL in series [1] (24 h, after 1 day); 1 µg/mL in series [2] (24 h, after 1 day); 75 µg/mL in series [3] (168 h, after 7 days); 8 µg/mL in series [4] (168 h, after 7 days). The “Interfacial Tension of Water-Nujol” value in series [14] (0.001% salt) came to 3 Dynes/cm; in series [14] (0.0025% salt), 3 Dynes/cm; in [14] (0.005% salt), 3 Dynes/cm; in [14] (0.0075% salt), 3 Dynes/cm; in [14] (0.010% salt), 3 Dynes/cm; in series [14] (0.100% salt) it was 2 Dynes/cm. Moreover, the “Surface Tension of Water” value is 33 Dynes/cm in [15] (0.001% salt); 33 Dynes/cm in [15] (0.0025% salt); 32 Dynes/cm in series [15] (0.005% salt); 31 Dynes/cm in series [15] (0.0075% salt); 31 Dynes/cm in series [15] (0.010% salt); 29 Dynes/cm in series [15] (0.100% salt).

`CCCCCCCCCCCCCCCC[P+](CC)(CCCCCCCCCCCCCCCC)CC(C)C.[Cl-]` [Example 7, Dihexadecyl Isobutyl Ethyl Phosphonium Chloride]: the “activity against Pseudomonas aeruginosa” value in series [1] is recorded as “Particularly outstanding”. Also, the MIC turned out to be 16 µg/mL in [1] (24 h, after 1 day); 0.5 µg/mL in series [2] (24 h, after 1 day); 0.5 µg/mL in [3] (336 h, after 14 days); 0.5 µg/mL in series [4] (336 h, after 14 days).

The values above are taken from patent US4188380A, “Surface active quaternary higher dialkyl phosphonium salt biocides and intermediates” (Exxon Research & Engineering Co., priority 1976, dated 1980).
